From patent US20080207521A1, “PEPTIDE LIGAND TO IMPAIR CANCER CELL MIGRATION” (priority 2005, published 2008)

Key:
[1] = test system: Wnt-5a antisense HB2 cells; assay: Adhesion of Wnt-5a antisense HB2 cells to collagen I (MTS); type: cell-based, human; conditions: for adhesion to collagen I, concentration-dependent analysis: 95% pure peptides, different concentrations
Protocol: The adhesion assay was carried out as previously described (12). Briefly, cells were serum-depleted for 16 h, detached with Versene and allowed to adhere as single cells to collagen I for 60 (MDA-MB-468) or 90 min (HB2) at 37° C. Non-adherent cells were removed by washing with PBS. The adherent cells were incubated with a (3-(4,5-dimethylthiazol-2-yl)-5-(3-carboxymethoxyphenyl)-2-(-4-sulfophenyl)-2H-tetrazolium, inner salt (MTS) dye reduction assay (Promega, Madison, Wis.) and absorbance was measured at 490 nm using a Fluostar microplate reader from BMG LabTechnologies (GmbH, Offenberg, Germany). In each experiment a single value was calculated based on the mean of adhesion from six separate wells after the adhesion to plastic alone had been subtracted. The CM used as a control in the adhesion assays was obtained from confluent Wnt-5a overexpressing HB2 cells (for experiments with Wnt-5a antisense HB2 cells) or Wnt-5a overexpressing MCF-7 cells (for MDA-MB-468 cells) stably transfected with a vector over-expressing Wnt5a. A collected CM was always used within three days.
To control the specificity of the CM, it was incubated with either the Wnt-5a or a control Ab for 45 min at 37° C. Subsequently 10 μl Protein A Sepharose was added for 30 min and after the protein A-bound antibodies were collected by centrifugation the remaining supernatants were used for the experiments.
Effects of crude peptides on adhesion of Wnt-5a antisense HB2 cells to collagen. (A) Single cells were allowed to adhere for 90 min in the absence or presence of the indicated crude peptides (100 μM). The amounts of adhesive cells were analyzed as described in the methods and the results are given as means±SEM of 7 separate experiments. (B) Adhesion of Wnt-5a antisense HB2 cells to collagen was analyzed after pre-treating the cells with an anti-[…]1-integrin Ab for 45 min before letting them adhere for 90 min in the absence or presence of peptides 171 or 175 (100 μM) or CM. The amounts of adhesive cells were analyzed as described in the methods and the results are given as means±SEM of 6 separate experiments (C) The diagram outlines a control of the presently used CM. The cells were allowed to adhere to collagen I-coated wells in the absence or presence of normal CM or Wnt-5a depleted CM. The amounts of adhesive cells were analyzed as described in the methods and the results are given as means±SEM of 6 separate experiments. Ns=not significant, * p<0.05, ** p<0.01 and *** p<0.001.
Effects of the selected and pure peptides on the ability of Wnt-5a antisense HB2 cells to adhere and migrate. (A-E) The ability of the cells to adhere to collagen type I-coated wells was analyzed as previously described for FIG. 2 in the absence or presence of different concentrations of the indicated peptide. (F) Effect of the indicated peptides on migration of Wnt-5a antisense HB2 in a transwell migration assay. The cells were allowed to migrate for 18 h in the absence or presence of 100 μM peptide or 0.4 μg/ml of recombinant Wnt5a. The data are given as means±SEM of 6-7 separate experiments, each performed in triplicate. * p<0.05 and ** p<0.01.

DDR1 = assay: Collagen-induced DDR1 phosphorylation in Wnt-5a antisense HB2 cells (immunoprecipitation/Western blot); type: cell-based, human; conditions: crude peptide (approximately 65% pure) 100 μM; 90 min on collagen I
Protocol: The phosphorylation status of DDR1 was analyzed as previously described (12), with the following modifications. After serum-depletion for 16 h, the cells were detached with Versene and then allowed to adhere to collagen I for 60 (MDA-MB-468) or 90 min (HB2) at 37° C. The experiments were terminated by lysing both adherent and non-adherent cells with a lysis buffer (50 mM Tris pH 7.4, 1% Triton-X, 5 mM EDTA, 5 mM EGTA, 50 mM NaCl, 10 μg/ml aprotinin, 2.5 mM benzamidine, 1 mM pefabloc, 1 μg/ml leupeptin and 1 mM Na3VO4). For immunoblotting an anti-DDR1 rabbit polyclonal Ab, sc-532 (Santa Cruz Biotech, Santa Cruz, Calif.) was used at a dilution of 1:10,000. The Ab recognizes DDR1b/c, which is essential because collagen only induces phosphorylation of the b or c isoforms of DDR1 in mammary epithelial cells (10).
Effects of crude peptides on collagen-induced DDR1 phosphorylation in Wnt-5a antisense HB2 cells. Single cells were allowed to adhere to collagen I-coated plates in the presence of the indicated crude peptide (100 μM). (A) Experiments performed in the presence of peptides 167-173. (B) Experiments performed in the presence of peptides 175-180. After 90 min the cells were lysed and DDR1 immunoprecipitated. Subsequently, the immunoprecipitates were subjected to Western blot analysis with an anti-phosphotyrosine Ab and then, after stripping, with an anti-DDR1 Ab to ascertain equal loading. The blots shown are representative of 3 separate experiments The diagrams show densitometric analysis of DDR1 phosphorylation, expressed as per cent of control.

Sequence | adhesion to collagen I, concentration-dependent analysis [1] | DDR1 phosphorylation (DDR1) | adhesion to collagen after pre-treatment with blocking anti-β1-integrin Ab ([1]; anti-β1-integrin Ab 45 min at 37° C., peptide 100 μM, 90 min) | adhesion to collagen I ([1]; crude peptide (65% pure) 100 μM, 90 min)
NKTSEGMDGCEL (Human) [peptide 175, Wnt-5a aa 311-322] | most effective | significant DDR1 phosphorylation | – | –
SQLAGLSQGQKKL [peptide 171, Wnt-5a aa 55-67; negative control] | lost or less consistent | no DDR1 phosphorylation | most likely β1-integrin-dependent | significant effect on adhesion
ADFRKVGDALKEKYD [peptide 169, Wnt-5a aa 242-256] | increased when tested at higher purity | significant DDR1 phosphorylation | – | –
